Measured values from ChEMBL document CHEMBL6074704, “The Antiepileptic Drug Levetiracetam Inhibits Carbonic Anhydrase: In Vitro and In Silico Studies on Catalytically Active Human Isoforms” (ACS Med Chem Lett, 2024).

Experiments:
Carbonic anhydrase 12 = Carbonic anhydrase 12 (Homo sapiens, UniProt O43570)
Description: Inhibition of human CA12 preincubated for 15 mins by phenol red staining based stopped flow CO2 hydrase assay

Carbonic anhydrase 3 = Carbonic anhydrase 3 (Homo sapiens, UniProt P07451)
Description: Inhibition of human CA3 preincubated for 15 mins by phenol red staining based stopped flow CO2 hydrase assay

Carbonic anhydrase 7 = Carbonic anhydrase 7 (Homo sapiens, UniProt P43166)
Description: Inhibition of human CA7 preincubated for 15 mins by phenol red staining based stopped flow CO2 hydrase assay

[1] = target: Carbonic anhydrase 5B, mitochondrial (Homo sapiens, UniProt Q9Y2D0); experiment: Inhibition of human CA VB preincubated for 15 mins by phenol red staining based stopped flow CO2 hydrase assay
Sequence of Carbonic anhydrase 5B, mitochondrial (Q9Y2D0 whole entry): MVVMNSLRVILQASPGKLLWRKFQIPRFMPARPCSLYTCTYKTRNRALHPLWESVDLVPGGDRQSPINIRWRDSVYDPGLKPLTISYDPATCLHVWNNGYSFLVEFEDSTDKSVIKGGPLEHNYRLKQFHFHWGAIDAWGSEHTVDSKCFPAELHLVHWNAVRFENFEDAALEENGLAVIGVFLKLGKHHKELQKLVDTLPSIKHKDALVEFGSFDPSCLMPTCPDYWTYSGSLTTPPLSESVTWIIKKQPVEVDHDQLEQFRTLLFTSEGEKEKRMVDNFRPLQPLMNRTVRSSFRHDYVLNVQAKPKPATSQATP

Carbonic anhydrase 1 = Carbonic anhydrase 1 (Homo sapiens, UniProt P00915); experiment: Inhibition of human CA1 preincubated for 15 mins by phenol red staining based stopped flow CO2 hydrase assay
Sequence of Carbonic anhydrase 1 (P00915 whole entry): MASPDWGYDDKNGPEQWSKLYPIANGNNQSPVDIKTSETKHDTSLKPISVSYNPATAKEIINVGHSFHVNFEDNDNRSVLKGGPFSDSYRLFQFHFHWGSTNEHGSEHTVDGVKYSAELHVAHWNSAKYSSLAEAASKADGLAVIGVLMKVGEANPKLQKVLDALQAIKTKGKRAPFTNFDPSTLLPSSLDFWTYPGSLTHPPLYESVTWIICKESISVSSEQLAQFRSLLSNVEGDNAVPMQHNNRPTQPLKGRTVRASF

Carbonic anhydrase 13 = Carbonic anhydrase 13 (Homo sapiens, UniProt Q8N1Q1); experiment: Inhibition of human CA13 preincubated for 15 mins by phenol red staining based stopped flow CO2 hydrase assay
Sequence of Carbonic anhydrase 13 (Q8N1Q1 whole entry): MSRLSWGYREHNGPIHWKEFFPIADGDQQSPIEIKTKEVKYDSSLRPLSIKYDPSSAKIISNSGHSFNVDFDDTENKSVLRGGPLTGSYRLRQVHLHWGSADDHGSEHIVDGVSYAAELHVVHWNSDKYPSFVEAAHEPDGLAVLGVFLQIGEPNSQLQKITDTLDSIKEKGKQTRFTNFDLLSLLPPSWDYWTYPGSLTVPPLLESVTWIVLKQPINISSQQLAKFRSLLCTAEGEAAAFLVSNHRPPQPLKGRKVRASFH

Carbonic anhydrase 14 = Carbonic anhydrase 14 (Homo sapiens, UniProt Q9ULX7); experiment: Inhibition of human CA14 preincubated for 15 mins by phenol red staining based stopped flow CO2 hydrase assay
Sequence of Carbonic anhydrase 14 (Q9ULX7 whole entry): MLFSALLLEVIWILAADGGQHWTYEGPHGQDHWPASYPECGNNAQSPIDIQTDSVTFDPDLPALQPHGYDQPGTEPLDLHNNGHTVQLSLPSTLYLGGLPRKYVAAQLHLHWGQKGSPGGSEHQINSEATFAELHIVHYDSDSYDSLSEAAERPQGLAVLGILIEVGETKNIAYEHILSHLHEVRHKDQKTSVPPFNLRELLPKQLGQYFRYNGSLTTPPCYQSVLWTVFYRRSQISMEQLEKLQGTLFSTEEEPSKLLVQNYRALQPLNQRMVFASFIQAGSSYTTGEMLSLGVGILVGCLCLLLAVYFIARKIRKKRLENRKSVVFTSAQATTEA

Carbonic anhydrase 4 = Carbonic anhydrase 4 (Homo sapiens, UniProt P22748); experiment: Inhibition of human CA4 preincubated for 15 mins by phenol red staining based stopped flow CO2 hydrase assay
Sequence of Carbonic anhydrase 4 (P22748 whole entry): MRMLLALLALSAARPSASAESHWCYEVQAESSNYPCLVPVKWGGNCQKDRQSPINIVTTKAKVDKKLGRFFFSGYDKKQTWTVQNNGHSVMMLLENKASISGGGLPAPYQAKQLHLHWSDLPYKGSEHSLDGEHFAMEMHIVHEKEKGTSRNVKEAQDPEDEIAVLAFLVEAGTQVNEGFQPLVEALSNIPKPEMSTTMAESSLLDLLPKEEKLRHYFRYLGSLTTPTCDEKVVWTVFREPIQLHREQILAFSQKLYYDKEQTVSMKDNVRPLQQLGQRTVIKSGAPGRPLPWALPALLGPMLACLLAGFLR

Carbonic anhydrase 9 = Carbonic anhydrase 9 (Homo sapiens, UniProt Q16790)
Carbonic anhydrase 2 = Carbonic anhydrase 2 (Homo sapiens, UniProt P00918); experiment: Inhibition of human CA2 preincubated for 15 mins by phenol red staining based stopped flow CO2 hydrase assay
[2] = target: Carbonic anhydrase 5A, mitochondrial (Homo sapiens, UniProt P35218); experiment: Inhibition of human CA VA preincubated for 15 mins by phenol red staining based stopped flow CO2 hydrase assay
Sequence of Carbonic anhydrase 5A, mitochondrial (P35218 whole entry): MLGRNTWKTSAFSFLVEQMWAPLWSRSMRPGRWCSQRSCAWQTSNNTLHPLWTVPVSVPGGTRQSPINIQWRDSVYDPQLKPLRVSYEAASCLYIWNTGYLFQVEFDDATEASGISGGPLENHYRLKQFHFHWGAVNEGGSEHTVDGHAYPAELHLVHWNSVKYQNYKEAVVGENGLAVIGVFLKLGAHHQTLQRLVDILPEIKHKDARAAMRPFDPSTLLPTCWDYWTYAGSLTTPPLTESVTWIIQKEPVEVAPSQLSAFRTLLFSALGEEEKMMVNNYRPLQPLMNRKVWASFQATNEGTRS

Carbonic anhydrase 6 = Carbonic anhydrase 6 (Homo sapiens, UniProt P23280); experiment: Inhibition of human CA6 preincubated for 15 mins by phenol red staining based stopped flow CO2 hydrase assay
Sequence of Carbonic anhydrase 6 (P23280 whole entry): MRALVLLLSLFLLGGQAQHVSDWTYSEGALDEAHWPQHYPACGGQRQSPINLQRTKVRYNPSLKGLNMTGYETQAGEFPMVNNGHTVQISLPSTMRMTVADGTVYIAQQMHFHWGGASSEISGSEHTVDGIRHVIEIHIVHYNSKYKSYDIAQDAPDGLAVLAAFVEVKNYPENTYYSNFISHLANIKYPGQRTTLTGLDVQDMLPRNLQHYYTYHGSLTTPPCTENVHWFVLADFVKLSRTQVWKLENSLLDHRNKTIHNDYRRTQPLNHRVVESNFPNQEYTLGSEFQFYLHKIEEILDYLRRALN

Sequence of Carbonic anhydrase 3 (P07451 whole entry): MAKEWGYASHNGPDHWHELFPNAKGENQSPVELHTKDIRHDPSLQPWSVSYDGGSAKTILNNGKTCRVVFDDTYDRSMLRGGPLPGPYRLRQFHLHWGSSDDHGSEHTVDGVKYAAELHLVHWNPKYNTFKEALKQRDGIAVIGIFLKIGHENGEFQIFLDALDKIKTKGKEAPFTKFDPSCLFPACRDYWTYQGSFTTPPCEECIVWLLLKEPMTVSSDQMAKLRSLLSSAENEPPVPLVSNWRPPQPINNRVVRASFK
Sequence of Carbonic anhydrase 12 (O43570 whole entry): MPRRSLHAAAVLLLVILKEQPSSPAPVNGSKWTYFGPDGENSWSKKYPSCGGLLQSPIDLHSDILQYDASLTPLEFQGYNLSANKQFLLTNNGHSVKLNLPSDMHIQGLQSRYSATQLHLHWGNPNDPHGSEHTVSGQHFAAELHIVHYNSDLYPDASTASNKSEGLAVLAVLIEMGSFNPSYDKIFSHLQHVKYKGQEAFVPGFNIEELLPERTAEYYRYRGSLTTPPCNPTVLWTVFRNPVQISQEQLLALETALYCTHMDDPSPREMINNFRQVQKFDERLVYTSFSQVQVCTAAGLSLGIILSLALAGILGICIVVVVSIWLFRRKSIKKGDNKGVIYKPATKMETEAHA
Sequence of Carbonic anhydrase 7 (P43166 whole entry): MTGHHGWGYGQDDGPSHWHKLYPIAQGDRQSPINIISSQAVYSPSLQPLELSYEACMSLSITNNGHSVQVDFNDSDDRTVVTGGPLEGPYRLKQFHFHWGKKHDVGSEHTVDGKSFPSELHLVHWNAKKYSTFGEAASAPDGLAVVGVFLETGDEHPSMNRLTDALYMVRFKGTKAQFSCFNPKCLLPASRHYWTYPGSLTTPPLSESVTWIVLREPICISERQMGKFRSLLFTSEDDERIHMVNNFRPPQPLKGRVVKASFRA

CC[C@@H](C(N)=O)N1CCCC1=O
Ki (Carbonic anhydrase 12): 0.054 µM
Ki (Carbonic anhydrase 3): 2.44 µM
Ki (Carbonic anhydrase 7): 7.55 µM
Ki [1]: 3.86 µM
Ki (Carbonic anhydrase 1): 7.95 µM
Ki (Carbonic anhydrase 13): 4.17 µM
Ki (Carbonic anhydrase 14): 2.27 µM
Ki (Carbonic anhydrase 4): 5.3 µM
Ki (Carbonic anhydrase 9): 0.089 µM
Ki (Carbonic anhydrase 2): 3.92 µM
Ki [2]: 9.2 µM
Ki (Carbonic anhydrase 6): 8.4 µM
